The subject of assay [1] is Hedgehog Signaling Pathway. Briefly: SHH-induced differentiation of C3H10T1/2 cells into osteoblastic cells, intracellular alkaline phosphatase activity. The class given is cell-based, mouse. Particulars: 10 nM SHH-N, 5 days, alkaline phosphatase activity (OD405), read-out: IC50 values of compounds that inhibit Hh pathway. The procedure: The Application of SHH to Induce Pluripotent Mesenchymal Mouse Embryonic Cell C3H10T1/2 to Differentiate into Osteoblastic Cells for the Determination of the Inhibitory Activity of N-(3-(1H-benzo[d]imidazol-2-yl)-4-chlorophenyl)-2-methyl-4-((2S,6R)-2,6-dimethylmorpholino)benzamide and Analogs on Hedgehog Signaling Pathway
The C3H10T1/2 cells were grown in DMEM medium supplemented with 10% fetal bovine serum (FBS, Hyclone) at 37° C. with 5% CO2. 10000 cells were sown to each well of a 96-well microplate a day before the experiment and grown overnight. […] The reference compound and testing compounds were serially diluted 1 to 3 and 1 to 10 in DMSO to seven concentrations with the eighth concentration being DMSO. A 10-fold dilution was prepared by mixing 10 μL of the DMSO dilutions with 90 μL of fresh growing medium. Pre-sown cells were taken out from incubator and the medium was removed. To each well, 180 μL of inducing medium containing 10 nM of SHH-N was added and followed immediately with 20 μL of 10× testing or reference compound dilutions. The testing compound concentrations are between 10 μM and 10 nM. The cells were then returned to CO2 incubator to grow additional 5 days at 37° C.
(§1) After incubating for 5 days, the cells were taken out and intracellular alkaline phosphatase activity was tested. The alkaline phosphatase activity was measured as follows:
3) Preparation of Substrate Solution:
(§2) Solution A: A 0.5 mM MgCl2 (Sigma Prod. No. M-0250) solution was prepared.
(§3) After the pH value was adjusted to 9.8 with 5 M HCl at 37° C., the total volume was adjusted to 100 mL.
(§4) After it is completely dissolved the total volume was adjusted to 10 mL with the final concentration being 1 mM.
Substrate reaction medium: to 10 mL of solution B, 250 μL of solution A and 200 μL of solution C were added, and mixed well.
4) The Measurement of Intracellular Alkaline Phosphatase Activity:
(§5) After taking out the cells from the incubator, the cell culture medium was removed and cells were washed twice with PBS. 20 μL of lysis solution (0.2% Triton solution) was added to each well. After being shaken for 30 min at room temperature, each well of cells received 80 μL of substrate reaction medium. The microplate was placed immediately into a VariSkan Flashplate reader and absorbance at OD405 was read as background reading. The plate was replaced back to cell culture incubator at 37° C. for additional 30 min and the absorbance was read again using VariSkan Flash plate reader at OD405.
The data were analyzed by subtracting the background reading from the reading at 30 min, and the obtained numbers were plotted and analyzed with Prism 5 software (GraphPad). The phosphatase activity (calculated OD405) was plotted against the log concentration of testing compound, and the obtained plot was fitted with non-linear curve fitting equation to calculate IC50 values. The curve fitting equation is Y=Bottom+(Top−Bottom)/(1+10^(X−Log IC50)). X is the logarithm of concentration. Y is the measure of alkaline phosphatase activity (OD405).
(§6) The calculated IC50 value is a measurement of the inhibitory activity of compound to Hh pathway.

In assay [2] the test system is Hedgehog Signaling Pathway. Briefly: SAG-induced differentiation of C3H10T1/2 cells into osteoblastic cells, intracellular alkaline phosphatase activity. The settings on record: 1 μM SAG, 5 days, alkaline phosphatase activity (OD405), read-out: IC50 values of compounds that inhibit Hh pathway. The format is cell-based, mouse.
Excerpt: The Application of SAG to Induce Pluripotent Mesenchymal Mouse Embryonic Cell C3H/10T1/2 to Differentiate into Osteoblastic Cells for the Determination of the Inhibitory Activity of N-(3-(1H-benzo[d]imidazol-2-yl)-4-chlorophenyl)-2-methyl-4-((2S,6R)-2,6-dimethylmorpholino)benzamide and Analogs on Hedgehog Signaling Pathway
The intracellular alkaline phosphatase activity is a reliable indication of the differentiation process. Therefore this enzymatic activity can be used to monitor the activity of hedgehog pathway inhibitors.
The C3H10T1/2 cells were grown in DMEM medium supplemented with 10% fetal bovine serum (FBS, Hyclone) at 37° C. with 5% CO2. 10000 cells were sown to each well of a 96-well microplate a day before the experiment and grown overnight. At the day of experiment, the inducing medium and inhibitor solutions were prepared as follows: the reference compound and testing compounds were serially diluted 1 to 3 and 1 to 10 in DMSO to seven concentrations with the eighth concentration being DMSO. A 10-fold dilution was prepared by mixing 10 μL of the DMSO dilution with 90 μL of fresh growing medium. […] Pre-sown cells were taken out from incubator and the medium was removed. To each well, 180 μL inducing medium was added and followed immediately with 20 μL of testing or reference compound dilutions. The testing compound concentrations are between 10 μM and 1 nM. The cells were then return to CO2 incubator to grow additional 5 days at 37° C.
as §1
1) Preparation of Substrate Solution:
as §2, §3, §4
Substrate reaction medium: To 10 mL of solution B, 250 μL of solution A and 200 μL of solution C were added, and mixed well.
2) the Measurement of Intracellular Alkaline Phosphatase Activity:
as §5
The data were analyzed by subtracting the background reading from the reading at 30 min, and the obtained numbers were plotted and analyzed with Prism 5 software (GraphPad). The phosphatase activity (calculated OD405) was plotted against the log concentration of testing compound, and the obtained plot was fitted with non-linear curve fitting equation to calculate IC50 values. The curve fitting equation is Y=Bottom+(Top−Bottom)/(1+10^((X−Log IC50))). X is the logarithm of concentration. Y is the measure of alkaline phosphatase activity (OD405).
as §6

[3] abbreviates: Mus musculus, C3H 10T1/2, 120 h.

The term pIC50 denotes −log10 of the IC50, conventionally taken in molar units.

pIC50: −log10 of the molar value.

Regarding `C[C@@H]1CN(c2ccc(C(=O)Nc3cccc(-c4cn5cccnc5n4)c3)cn2)C[C@H](C)O1` [Example 57, N-(3-(imidazo[1,2-a]pyrimidin-2-yl)phenyl)-6-((2S,6R)-2,6-dimethylmorpholino)nicotinamide], the pIC50 in assay [1] (setting [3]) and in assay [2] (setting [3]) was below 5.00 each time.

For the compound `C[C@@H]1CN(c2ccc(C(=O)Nc3ccc(Cl)c(-c4nnc5cnccn45)c3)cn2)C[C@H](C)O1` [Example 58, N-(3-([1,2,4]triazolo[4,3-a]pyrazin-3-yl)-4-chlorophenyl)-6-((2S,6R)-2,6-dimethylmorpholino)nicotinamide], the pIC50 in assay [1] (setting [3]) and in assay [2] (setting [3]) was below 5.00 throughout.

With `Cc1cc(-c2ccc(C(F)(F)F)cc2)ccc1C(=O)Nc1cc(-c2nc3ccccc3[nH]2)ccn1` [Example 61, N-(4-(1H-benzo[d]imidazol-2-yl)pyridin-2-yl)-3-methyl-4′-(trifluoromethyl)biphenyl-4-carboxamide], the pIC50 in assay [1] (setting [3]) and in assay [2] (setting [3]) was below 5.00 in each case.

With `Cc1cc(-c2ccc(C(F)(F)F)cc2)ccc1C(=O)Nc1cc(-c2nc3ccccc3[nH]2)cc(C(F)(F)F)c1` [Example 62, N-(3-(1H-benzo[d]imidazol-2-yl)-5-(trifluoromethyl)phenyl)-3-methyl-4′-(trifluoromethyl)biphenyl-4-carboxamide], the pIC50 was 6.39 in assay [1] (setting [3]) and below 5.00 in assay [2] (setting [3]).

Take `Cc1cc(-c2ccc(C(F)(F)F)cc2)ccc1C(=O)Nc1cc(Cl)cc(-c2nc3ccccc3[nH]2)c1` [Example 63, N-(3-(1H-benzo[d]imidazol-2-yl)-5-chlorophenyl)-3-methyl-4′-(trifluoromethyl)biphenyl-4-carboxamide]: the pIC50 in assay [1] (setting [3]) is 7.41; in assay [2] (setting [3]) it was 5.87.

As to `Cc1cc(-c2ccc(C(F)(F)F)cc2)ccc1C(=O)Nc1cccc(-c2nc3ccccc3[nH]2)c1Cl` [Example 64, N-(3-(1H-benzo[d]imidazol-2-yl)-2-chlorophenyl)-3-methyl-4′-(trifluoromethyl)biphenyl-4-carboxamide], the pIC50 in assay [1] (setting [3]) was 5.95; in assay [2] (setting [3]), 6.20.

`Cc1c(NC(=O)c2ccc(N3C[C@@H](C)O[C@@H](C)C3)nc2)cccc1-c1nc2ccccc2[nH]1` [Example 65, N-(3-(1H-benzo[d]imidazol-2-yl)-2-methylphenyl)-6-((2S,6R)-2,6-dimethylmorpholino)nicotinamide]: the figures for the pIC50 in assay [1] (setting [3]) and in assay [2] (setting [3]) were 6.30 and 6.28, respectively.

As for `Cc1cc(-c2ccc(C(F)(F)F)cc2)ccc1C(=O)Nc1cccc(-c2nc3ccccc3[nH]2)n1` [Example 72, N-(6-(1H-benzo[d]imidazol-2-yl)pyridin-2-yl)-3-methyl-4′-(trifluoromethyl)biphenyl-4-carboxamide], the pIC50 in assay [1] (setting [3]) was 6.33; in assay [2] (setting [3]), below 5.00.

For the compound `Cc1cc(-c2ccc(C(F)(F)F)cc2)ccc1C(=O)Nc1cccc(-c2nc3ccccn3n2)c1` [Example 73, N-(3-([1,2,4]triazolo[1,5-a]pyridin-2-yl)phenyl)-3-methyl-4′-(trifluoromethyl)biphenyl-4-carboxamide], the pIC50 in assay [1] (setting [3]) is 6.87; in assay [2] (setting [3]), 6.79.

For `Cc1cc(-c2ccc(C(F)(F)F)cc2)ccc1C(=O)Nc1ccc(F)c(-c2nc3ccccc3[nH]2)c1` [Example 74, N-(3-(1H-benzo[d]imidazol-2-yl)-4-fluorophenyl)-3-methyl-4′-(trifluoromethyl)biphenyl-4-carboxamide], the values for the pIC50 in assay [1] (setting [3]) and in assay [2] (setting [3]) were 8.35 and 6.72, respectively.

For the compound `Cc1cc(-c2ccc(C(F)(F)F)cc2)ccc1C(=O)Nc1ccc(Br)c(-c2nc3ccccc3[nH]2)c1` [Example 75, N-(3-(1H-benzo[d]imidazol-2-yl)-4-bromophenyl)-3-methyl-4′-(trifluoromethyl)biphenyl-4-carboxamide], the pIC50 in assay [1] (setting [3]) is 8.54; in assay [2] (setting [3]) it was 7.77.

In the case of `COc1ccc(NC(=O)c2ccc(-c3ccc(C(F)(F)F)cc3)cc2C)cc1-c1nc2ccccc2[nH]1` [Example 76, N-(3-(1H-benzo[d]imidazol-2-yl)-4-methoxyphenyl)-3-methyl-4′-(trifluoromethyl)biphenyl-4-carboxamide], the pIC50 in assay [1] (setting [3]) and in assay [2] (setting [3]) was below 5.00 each time.

As to `Cc1cc(N2CCN(C)CC2)ccc1C(=O)Nc1ccc(Cl)c(-c2nc3ccccc3[nH]2)c1` [Example 92, N-(3-(1H-benzo[d]imidazol-2-yl)-4-chlorophenyl)-2-methyl-4-(4-methylpiperazin-1-yl)benzamide], the pIC50 was 7.35 in assay [1] (setting [3]) and 6.51 in assay [2] (setting [3]).

`Cc1ccc(NC(=O)c2ccc(N3C[C@@H](C)N(C)[C@@H](C)C3)cc2Cl)cc1-c1nc2ccccc2[nH]1` [Example 102, N-(3-(1H-benzo[d]imidazol-2-yl)-4-methylphenyl)-2-chloro-4-((3S,5R)-3,4,5-trimethylpiperazin-1-yl)benzamide]: the results for the pIC50 in assay [1] (setting [3]) and in assay [2] (setting [3]) were 8.41 and 7.33, respectively.

Regarding `Cc1cc(N2CCNCC2)ccc1C(=O)Nc1ccc(Cl)c(-c2nc3ccccc3[nH]2)c1` [Example 108, N-(3-(1H-benzo[d]imidazol-2-yl)-4-chlorophenyl)-2-methyl-4-(piperazin-1-yl)benzamide], the pIC50 in assay [1] (setting [3]) was 7.12; in assay [2] (setting [3]), 6.16.

As to “N-(3-(imidazo[1,2-a]pyridin-2-yl)-4-chlorophenyl)-3-methyl-4′-(trifluoromethyl)biphenyl-4-carboxamide [Example 67]”, the pIC50 is 7.17 in assay [1] and below 5.00 in assay [2].

These data come from US10676468B2, “N-(3-heteroarylaryl)-4-arylarylcarboxamides and analogs as hedgehog pathway inhibitors and use thereof” (IMPACT Therapeutics, Inc., priority 2012, dated 2020).
